Laboratory results as given in patent publication US20120258938A1, “Enzymatic Production or Chemical Synthesis and Uses for 5,7-Dienes and UVB Conversion Products Thereof” (priority 2008, published 2012).

Columns and labels:
involucrin = assay: Involucrin protein expression in HaCaT (flow cytometry, microscopy); assay type: cell-based, human; details: 24 h; for expression of involucrin: 10 nM; for increase in the expression of involucrin: flow cytometry
HaCaT keratinocytes [1] = assay: Forward and side scatter (cell size, granularity) of HaCaT keratinocytes; assay type: cell-based, human; details: for Forward scatter [mean signal intensity] / Side scatter [mean signal intensity]: HaCaT keratinocytes, 10^−8 M, 24 h; for Forward scatter [mean signal intensity]: reflects cell size; for Side scatter [mean signal intensity]: reflects granularity; for forward and side scatter: result in words (Table 13)
Method: The FL-1 signal (collected from 10,000 events in side scatter/forward scatter window after debris exclusion) was recorded. Forward (relative to cell size) and side (relative to cell granularity) scatter histograms were generated and mean signal intensity was recorded. FL-1 signal values are presented as dMFI (difference between mean fluorescence intensity of sample stained with specific and isotype control antibody). Scatter signal values are presented as MSI (mean signal intensity). Signal intensities were analyzed with Cell Quest (BD Biosciences, San Diego, Calif.) and graphical representations of the FL-1 signal were prepared with WinMdi 2.8 (shareware from Joseph Trotter, The Scripps Research Institute, San Diego, Calif.).

CYP24 promoter = assay: CYP24-Luc reporter in HaCaT keratinocytes; assay type: cell-based, human
Description: Construct CYP24-Luc and VDRE-Luc constructs were a generous gift from Dr. Tai Cheng, Ph.D. (Boston University Medical Campus, Core Lab Director). It was originally developed by Vaisanen et al. (27). PLuc and NFκB-Luc construct was described previously (28-29). huVDR construct was a generous gift from Dr. D. Bikle. HaCaT keratinocytes were transfected with NFκB-Luc, CYP-24-Luc, VDRE-Luc and hVDR constructs using Lipofectamine Plus (Invitrogen, Carlsbad, Calif.) in DMEM medium with firefly luciferase reporter gene plasmid and with phRL-TK.
HaCaT keratinocytes were transfected with NFκB-Luc construct using Lipofectamine Plus (Invitrogen, Carlsbad, Calif.) in DMEM medium with firefly luciferase reporter gene plasmid and with phRL-TK (expresses Renilla luciferase and serves as normalization control; Promega, Madison, Wis.). After transfection cells were incubated for 24 h in complete medium, and then after change to fresh media treated with drug or vehicle (ethanol) at the concentration of 10 nM for 30 minutes, 1 h, 4 h, 16 h and 24 h. The firefly luciferase and Renilla luciferase signals were recorded with a TD-20/20 luminometer (Turner Designs, Sunnyvale, Calif.); background luminescence was subtracted and the resulting promoter specific firefly signal was divided by the Renilla signal (proportional to the number of transfected cells). The values obtained were divided by the mean of control (untreated) cells.

Human dermal fibroblasts = assay: TGF-b1 induced collagen protein production by dermal fibroblasts; assay type: cell-based; details: collagenase sensitive protein; for TGF-b1 induced collagen protein production: [3H]-proline
Method: Human dermal fibroblasts grown from explant skin cultures at less than 10 subpassages were plated at 5×10^4 cells per well in 24 well Costar tissue culture plates and were grown to confluency. Complete MEM was then changed to serum free Complete MEM without non-essential amino acids. After 24 hours, culture medium was changed (450 μl/well) to the same and secosteroids listed in Table 14 were added in 10 μl absolute alcohol (ETOH) to a final concentration of 10^−9 and M, 3 replicate wells each. Vehicle control wells (n=6) contained 10 μl (ETOH). After 2 hour pre-incubation, hr TGF-b1 (R and D systems) was added to each well except ETOH wells at a final concentration of 5 ng/ml. After 48 hours of culture, plate wells were paused with 1μ Cl ^3[H]-proline. After 24 hours, culture supernatants were harvested and collagenase sensitive protein was determined as previously described (44).

HaCaT keratinocytes [2] = assay: [3H]-thymidine DNA synthesis in HaCaT keratinocytes; assay type: cell-based, human
Summary of the method: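 HaCaT cells in DMEM with 5% charcoal-treated FBS received vehicle (ethanol) or secosteroids for 48 hours, with [3H]-thymidine at 1 μCi/mL for the final 12 hours. Incorporated radioactivity from trypsin-harvested cells on glass fiber filters was counted by beta counter.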

[3] = HaCaT, 20-hydroxycholecalciferol at 0.1 nM

Structure (SMILES)	expression of involucrin (involucrin)	increase in the expression of involucrin (involucrin; 10^−8 M)	Forward scatter [mean signal intensity] (HaCaT keratinocytes [1])	Side scatter [mean signal intensity] (HaCaT keratinocytes [1])	forward and side scatter (HaCaT keratinocytes [1]; HaCaT)	side scatter, mean signal intensity (MSI) (HaCaT keratinocytes [1]; [3])	CYP24 promoter activity (CYP24 promoter)	TGF-b1 induced collagen protein production (Human dermal fibroblasts)	DNA synthesis ([3H]-thymidine assay) (HaCaT keratinocytes [2]; 48 h, 10^−8 and 10^−7 M)	keratinocyte proliferation compared with 1α,25-dihydroxycholecalciferol (HaCaT keratinocytes [2]; HaCaT, 48 h)	involucrin dMFI (involucrin; 10^−8 M)	forward scatter, mean signal intensity (MSI) (HaCaT keratinocytes [1]; [3])	decrease in DNA synthesis (HaCaT keratinocytes [2]; 0.1 nM) [%]	decrease in DNA synthesis (HaCaT keratinocytes [2]; 10 nM)	proliferation (DNA synthesis) (HaCaT keratinocytes [2]; HaCaT, 48 hr)	Collagen CPM/Well (mean ± SEM) × 10^−5 FB (Human dermal fibroblasts; hrTGF-b1 5 ng/ml, secosteroids at 10^−10M, 3[H]-proline) [CPM/Well × 10^−5 FB]
C=C1/C(=C\C=C2/CCC[C@]3(C)[C@@H]([C@H](C)CCCC(C)(C)O)CC[C@@H]23)C[C@@H](O)C[C@@H]1O [1α,25-dihydroxycholecalciferol, (5Z,7E)-9,10-secocholesta-5,7,10(19)-triene-1α,3β,25-triol, reference compound]	increase of expression of involucrin	negligible	122.12 ± 23.98	143.46 ± 15.76	only the effect on forward scatter was statistically significant	219±4	stimulated transcriptional activity of CYP24 promoter	inhibited TGF-b1 induced collagen protein production								
C=C1CC[C@H](O)C/C1=C/C=C1\CCC[C@@]2(C)[C@H]1CC[C@@H]2[C@@](C)(O)CCCC(C)C [20(OH)D3, (5Z,7E)-9,10-secocholesta-5,7,10(19)-triene-3β,20-diol]		~3.7 fold				210±6	failed to stimulate the CYP24 promoter activity	inhibited TGF-b1 induced collagen protein production	inhibited DNA synthesis	inhibit keratinocyte proliferation more potently than the control compound	71±8	251±2				
C=C1CC[C@H](O)C/C1=C/C=C1\CCC[C@]2(C)[C@@H](C(C)(O)CC(O)CC(C)C)CC[C@@H]12 (stereo partly drawn) [20,23-dihydroxycholecalciferol, (5Z,7E)-9,10-secocholesta-5,7,10(19)-triene-3β,20,23-triol]	stimulated expression of involucrin gene		87.74 ± 29.18	154.4 ± 30	increased significantly both forward and side scatter		stimulated activity of CYP24 promoter poorly			inhibit keratinocyte proliferation more potently than the control compound			30	approximately 50%		
C=C1CC[C@H](O)C/C1=C/C=C1\CCC[C@]2(C)[C@@H](C(C)=O)CC[C@@H]12 [pD3, (5Z,7E)-3β-hydroxy-9,10-secopregna-5,7,10(19)-trien-20-one]								inhibited TGF-b1 induced collagen protein production							inhibits proliferation	181 ± 14
